Assay results from ChEMBL document CHEMBL3627631, “Inactivation of protein tyrosine phosphatases by dietary isothiocyanates” (Bioorg Med Chem Lett, 2015).
Active and inactive are the calls of the source. No cut-off for these calls is given here.

Tests used:
[1] = target: T1, Tyrosine-protein phosphatase non-receptor type 11 (Homo sapiens) (UniProt Q06124); test: Inhibition of recombinant human SHP2 catalytic domain (246 to 527 amino acid residues) in 3,3-dimethylglutarate buffer using pNPP as substrate assessed as p-nitrophenolate release by spectrophotometric analysis in presence of reversible, site-directed inhibitor phosphate, arsenate
T1 sequence (whole entry): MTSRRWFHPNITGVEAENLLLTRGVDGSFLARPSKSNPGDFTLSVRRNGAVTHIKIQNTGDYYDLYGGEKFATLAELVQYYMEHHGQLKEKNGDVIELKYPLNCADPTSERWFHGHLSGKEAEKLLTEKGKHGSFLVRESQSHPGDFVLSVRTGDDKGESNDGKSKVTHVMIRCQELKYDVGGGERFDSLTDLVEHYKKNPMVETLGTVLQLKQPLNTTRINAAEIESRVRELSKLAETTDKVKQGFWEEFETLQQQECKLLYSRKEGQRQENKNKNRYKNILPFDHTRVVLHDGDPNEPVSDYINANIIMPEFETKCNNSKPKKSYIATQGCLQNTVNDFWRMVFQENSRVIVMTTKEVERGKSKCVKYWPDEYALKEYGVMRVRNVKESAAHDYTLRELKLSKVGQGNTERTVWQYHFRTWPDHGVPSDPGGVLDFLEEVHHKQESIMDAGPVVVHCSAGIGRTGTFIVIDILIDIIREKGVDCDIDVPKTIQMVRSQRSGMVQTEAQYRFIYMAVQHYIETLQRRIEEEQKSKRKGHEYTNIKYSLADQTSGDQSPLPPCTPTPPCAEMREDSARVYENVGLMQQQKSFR

[2] = target: T1, Tyrosine-protein phosphatase non-receptor type 11 (Homo sapiens); test: Inhibition of recombinant human SHP2 catalytic domain (246 to 527 amino acid residues) in 3,3-dimethylglutarate buffer using pNPP as substrate assessed as apparent second order rate constant after 10 mins
[3] = target: T2, Tyrosine-protein phosphatase non-receptor type 1 (Homo sapiens) (UniProt P18031); test: Inhibition of recombinant human PTP1B catalytic domain (1 to 322 amino acid residues) using pNPP as substrate assessed as p-nitrophenolate release at 200 uM after 10 mins by spectrophotometric analysis in presence of reversible, site-directed inhibitor phosphate, arsenate
T2 sequence (whole entry): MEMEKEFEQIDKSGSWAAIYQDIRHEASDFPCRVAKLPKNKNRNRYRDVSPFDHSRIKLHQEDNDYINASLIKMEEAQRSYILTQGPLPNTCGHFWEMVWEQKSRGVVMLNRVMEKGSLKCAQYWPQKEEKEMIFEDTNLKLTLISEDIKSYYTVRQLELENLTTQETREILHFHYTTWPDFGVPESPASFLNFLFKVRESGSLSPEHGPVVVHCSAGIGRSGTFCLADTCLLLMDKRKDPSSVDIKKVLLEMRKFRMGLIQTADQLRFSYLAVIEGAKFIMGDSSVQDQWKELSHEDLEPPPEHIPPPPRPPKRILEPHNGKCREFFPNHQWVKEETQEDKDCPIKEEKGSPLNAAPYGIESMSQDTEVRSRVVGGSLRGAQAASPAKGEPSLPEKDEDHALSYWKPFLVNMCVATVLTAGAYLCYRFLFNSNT

[4] = Chemical stability of the compound in Bis-Tris and Tris buffer containing DTPA, sodium acetate, Tween 80 at 500 uM at pH 7.0 at 30 degC incubated for 2.5 hrs prior to addition of PTP1B; type: physicochemical; conditions: pH 7, 2.5 h
[5] = target: T2, Tyrosine-protein phosphatase non-receptor type 1 (Homo sapiens); test: Reversible inhibition of recombinant human PTP1B catalytic domain (1 to 322 amino acid residues) in Tris buffer assessed as inactivation constant kr
[6] = target: T2, Tyrosine-protein phosphatase non-receptor type 1 (Homo sapiens); test: Reversible inhibition of recombinant human PTP1B catalytic domain (1 to 322 amino acid residues) in Tris buffer assessed as inactivation constant kf
[7] = target: T2, Tyrosine-protein phosphatase non-receptor type 1 (Homo sapiens); test: Inhibition of recombinant human PTP1B catalytic domain (1 to 322 amino acid residues) using pNPP as substrate assessed as p-nitrophenolate release at 500 uM incubated with first aliquot of enzyme for 2000 secs followed by addition of second aliquot of enzyme measured for 1500 secs by spectrophotometric analysis
[8] = target: T2, Tyrosine-protein phosphatase non-receptor type 1 (Homo sapiens); test: Reversible inhibition of recombinant human PTP1B catalytic domain (1 to 322 amino acid residues) measured for 3 hrs by gel filtration assay
[9] = target: T2, Tyrosine-protein phosphatase non-receptor type 1 (Homo sapiens); test: Reversible inhibition of recombinant human PTP1B catalytic domain (1 to 322 amino acid residues) in 3,3-dimethylglutarate buffer assessed as inactivation constant kr
[10] = target: T2, Tyrosine-protein phosphatase non-receptor type 1 (Homo sapiens); test: Reversible inhibition of recombinant human PTP1B catalytic domain (1 to 322 amino acid residues) in 3,3-dimethylglutarate buffer assessed as inactivation constant kf
[11] = target: T2, Tyrosine-protein phosphatase non-receptor type 1 (Homo sapiens); test: Inhibition of recombinant human PTP1B catalytic domain (1 to 322 amino acid residues) using pNPP as substrate assessed as p-nitrophenolate release after 10 mins by spectrophotometric analysis in presence of catalase, superoxide dismutase and mannitol
[12] = target: T1, Tyrosine-protein phosphatase non-receptor type 11 (Homo sapiens); test: Inhibition of recombinant human SHP2 catalytic domain (246 to 527 amino acid residues) in Tris buffer using pNPP as substrate assessed as apparent second order rate constant after 10 mins
[13] = Chemical stability of the compound in 3,3-dimethylglutarate buffer containing DTPA, sodium acetate, Tween 80 at 500 uM at pH 7.0 at 30 degC incubated for 2.5 hrs prior to addition of PTP1B; type: physicochemical; conditions: pH 7, 2.5 h

## C=CCN=C=S [ALLYL ISOTHIOCYANATE]
[1]
  inhibition: inactive
[2]
  Kapp: 9 M⁻¹ s⁻¹
[3]
  inhibition: inactive
[4]
  Stability: Unstable
[5]
  K: 2.3 ×10⁻⁴ /s
[6]
  K: 2.3 M⁻¹ s⁻¹
[7]
  inhibition: Active
[8]
  inhibition: Active
[9]
  K: 8.3 ×10⁻⁵ /s
[10]
  K: 2.7 M⁻¹ s⁻¹
[11]
  inhibition: Active
[12]
  Kapp: 16 M⁻¹ s⁻¹
[13]
  Stability: Stable

## C[S+]([O-])CCCCN=C=S (stereo not drawn)
[1]
  inhibition: inactive
[2]
  Kapp: 3.7 M⁻¹ s⁻¹
[9]
  K: 1.4 ×10⁻⁴ /s
[10]
  K: 2.4 M⁻¹ s⁻¹
[12]
  Kapp: 3.5 M⁻¹ s⁻¹
